{
  "source": "patent US6927039B2",
  "about": "“Enzymatic process” (Nanobiodesign Limited, priority 2000, dated 2005)",
  "key": {"cytochrome P450 BM3 [1]": {"target": "T1, cytochrome P450 BM3 (Priestia megaterium, UniProt P14779)", "T1 sequence (P14779 1-1049)": "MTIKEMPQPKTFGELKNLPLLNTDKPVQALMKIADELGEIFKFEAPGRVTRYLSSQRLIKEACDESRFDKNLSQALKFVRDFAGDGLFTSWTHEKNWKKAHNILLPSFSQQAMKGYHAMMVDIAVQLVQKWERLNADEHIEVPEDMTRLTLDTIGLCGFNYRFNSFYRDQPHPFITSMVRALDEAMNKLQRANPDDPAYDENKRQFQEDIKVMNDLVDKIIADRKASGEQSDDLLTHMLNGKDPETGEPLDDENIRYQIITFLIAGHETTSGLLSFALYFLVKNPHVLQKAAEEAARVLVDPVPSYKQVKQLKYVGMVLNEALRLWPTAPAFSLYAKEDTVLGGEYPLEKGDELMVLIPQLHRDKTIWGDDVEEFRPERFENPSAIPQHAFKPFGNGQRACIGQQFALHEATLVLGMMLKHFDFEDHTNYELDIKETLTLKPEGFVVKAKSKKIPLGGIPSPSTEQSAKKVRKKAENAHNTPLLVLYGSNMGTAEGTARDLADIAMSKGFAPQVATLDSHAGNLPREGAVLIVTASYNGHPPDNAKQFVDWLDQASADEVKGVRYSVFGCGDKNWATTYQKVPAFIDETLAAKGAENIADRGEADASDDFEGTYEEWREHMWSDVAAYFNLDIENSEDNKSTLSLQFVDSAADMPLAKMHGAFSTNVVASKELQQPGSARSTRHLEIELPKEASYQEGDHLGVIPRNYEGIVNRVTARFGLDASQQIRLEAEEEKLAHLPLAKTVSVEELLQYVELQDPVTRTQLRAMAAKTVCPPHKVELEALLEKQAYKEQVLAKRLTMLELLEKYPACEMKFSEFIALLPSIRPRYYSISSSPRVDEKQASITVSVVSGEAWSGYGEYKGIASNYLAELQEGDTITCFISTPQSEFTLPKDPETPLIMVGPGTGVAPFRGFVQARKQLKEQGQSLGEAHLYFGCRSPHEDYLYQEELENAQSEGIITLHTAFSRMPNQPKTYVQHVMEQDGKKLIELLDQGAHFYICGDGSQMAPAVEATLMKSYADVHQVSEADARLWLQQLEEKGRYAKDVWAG", "experiment": "Alkali assay of NADP+ production in whole E.coli BL21(DE3) cells expressing P450 BM3 (in vivo assay)", "conditions": "for R (Remark): substrate or no-interaction with P450 BM3; for Vmax: alkali assay; for Vmax / time at which the plateau of the A360 alkali product curve is reached: NADPH 1.5 mM; for time at which the plateau of the A360 alkali product curve is reached: substrate concentration about 0.8 mM; for substrate concentration above which the linear region of NADPH oxidation was found in the first 25 min: ~0-25 min after NADPH addition"}, "cytochrome P450 BM3 [2]": {"target": "T1, cytochrome P450 BM3", "experiment": "Hydrogen peroxide determination (uncoupling) by HRP/ABTS assay, purified enzyme", "assay_type": "biochemical, Bacillus megaterium", "design": "expressed in transfected cells; host or cells: E. coli BL21(DE3) transformed with pT7Bm3Z", "conditions": "150 μM NADPH", "description": "Hydrogen Peroxide Determination. Uncoupled reactions were determined by measuring the production of hydrogen peroxide during substrate turnover using the horseradish peroxidase (HRP)/2′2-Azino-di(3-ethyl-benzathiazoline-6-sulphonic acid) (ABTS) assay as described by Childs and Bardsley (31). The extinction coefficient at 414 nm of the radical cation of ABTS was calculated to 32.95 mM^−1 cm^−1, in accordance with the published value. The assay mixture composition was essentially similar to that utilised during the substrate-dependent NADPH consumption assay (20-30 nM P450 BM3 in 100 mM potassium phosphate buffer pH 8.0, 150 μM NADPH, and at least 1.7 times higher substrate concentration relative to NADPH concentration). When all NADPH was consumed (as judged from the disappearance of the 340 nm peak) the hydrogen peroxide produced was measured. Uncoupling in whole cells was measured following essentially the same assay in whole cells in 100 mM potassium phosphate buffer pH 8.0 incubated with substrate and NADPH as in the alkali method."}, "cytochrome P450 BM3 [3]": {"target": "T1, cytochrome P450 BM3", "experiment": "Substrate binding by spectral titration of the haem high spin band, purified enzyme (in vitro)", "design": "expressed in transfected cells; host or cells: E. coli BL21(DE3) transformed with pT7Bm3Z; species or system Bacillus megaterium", "description": "Substrate Binding and NADPH Consumption Assays. Substrate binding was followed in a Hewlett-Packard 8452A diode array spectrophotometer, equipped with a Hewlett-Packard peltier temperature controller 89090 by monitoring the increase in the high spin band of the haem at 390 nm, upon titration with different substrates. The dissociation constant Kd was calculated by fitting the obtained data to the equation [ES]=((ΔA390-ΔA421)max·[S]free)/(Kd+[S]free) where [ES]=(ΔA390-ΔA421)/(ΔA392-ΔA421)max·[P450 BM3] and [S]free=[S]added−[ES].\n(§1) NADPH consumption was followed at 340 nm using a Δε340=6.22 mM^−1·cm^−1. Both assays were performed at 20° C. using P450 BM3 in 100 mM potassium phosphate buffer, pH 8.0. Reaction was initiated by addition to the substrate bound enzyme of NADPH to a final concentration of 130-150 μM. In the kinetics assay the rate constant kcat was calculated from the linear part of the decrease in A340 with time, which lasted at least for the first 4 sec. The enzyme concentration typically varied between 0.4 and 0.8 μM in the binding assay and between 8 and 25 nM in the catalytic assay. Substrate stock solutions were freshly prepared the day of the assay. Fatty acid stock solutions were in 50 mM potassium carbonate, SDS was easily dissolved in water, while TCE stock solutions were prepared in ethanol. If appropriate, stocks of candidate agents may be prepared in, for example, N,N-dimethylformamide just before the assay. […] The confidence interval for Kd given in the results section is the mean±the standard deviation of at least four measurements, as calculated using the software Kaleidagraph. Similarly kcat was calculated by fitting data points to the Michaelis-Menten equation. Each data point is the mean of at least four measurements."}, "E.coli BL21(DE3) cells": {"tested_on": "E.coli BL21(DE3) cells", "experiment": "Toxicity of substrate to the whole cells used in the assay", "assay_type": "cell-based", "description": "When the initial rate of AA, LA, and SDS oxidation was plotted against substrate concentration a Michaelis-Menten-type curve was obtained as shown in FIG. 6. […] The kinetic parameters determined following the substrate-dependent NADPH oxidation with time in the whole-cell assay are given in Table 1. For all the three substrates the extent of uncoupling of P450 BM3 from substrate hydroxylation was also determined in a whole-cell assay. This was essentially an adaptation of the hydrogen peroxide quantification method of HRP with ABTS described for the experiments carried out on purified enzyme.\nThe potential lethal effect that high concentrations of substrate may have on whole cells (as in the case of arachidonic acid at concentrations higher than 170 μM, FIG. 7A.) can be overcome without loss of sensitivity by successive small additions of substrate. The increase of the A360 signal with subsequent additions of SDS to whole cells expressing P450 BM3 is reported in FIG. 8, where it can be observed how the increase in the absorbance becomes limited by the NADPH concentration. At 1.5 h after NADPH addition, when SDS is supplied periodically to the cells an increase of about 45% in the NADP^+ production is seen, which should correspond to a ratio of sample A360 signal/blank signal of about 30. […]"}, "cytochrome P450 BM3 [4]": {"target": "T1, cytochrome P450 BM3", "experiment": "Substrate-dependent NADPH consumption assay at 340 nm, purified enzyme (in vitro)", "assay_type": "biochemical, Bacillus megaterium", "design": "expressed in transfected cells; host or cells: E. coli BL21(DE3) transformed with pT7Bm3Z", "conditions": "NADPH 130-150 μM, 20° C., pH 8.0", "description": "as §1"}, "[5]": {"conditions": "20° C., 100 mM potassium phosphate buffer pH 8.0, read-out: Kd"}},
  "note": "Where two headings read alike, the source gives them in different places.",
  "data": [
    {"smiles": "ClC(Cl)C(Cl)Cl", "note": "[TCE, 1,1,2,2-tetrachloroethane]", "values": [
      {"measurement": "R (Remark)", "setting": "cytochrome P450 BM3 [1]", "result": "S"},
      {"measurement": "% H2O2", "setting": "cytochrome P450 BM3 [2]", "result": 0, "unit": "%"},
      {"measurement": "Kd", "setting": "cytochrome P450 BM3 [3]; [5]", "result": "4010 ± 830", "unit": "µM"}
    ]},
    {"smiles": "CCCCC/C=C\\C/C=C\\C/C=C\\C/C=C\\CCCC(=O)O", "note": "[AA, arachidonic acid]", "values": [
      {"measurement": "R (Remark)", "setting": "cytochrome P450 BM3 [1]", "result": "S"},
      {"measurement": "toxicity to E.coli BL21(DE3) cells", "setting": "E.coli BL21(DE3) cells", "result": "relatively high toxicity"},
      {"measurement": "concentration above which the substrate has a lethal effect on whole cells", "setting": "E.coli BL21(DE3) cells; E.coli BL21(DE3) cells expressing P450 BM3", "result": "higher than 170 μM"},
      {"measurement": "% H2O2", "setting": "cytochrome P450 BM3 [2]", "result": 0.11, "unit": "%"},
      {"measurement": "Kd", "setting": "cytochrome P450 BM3 [3]; printed as an order-of-magnitude range in M, read-out: Kd", "result": "~0.1", "unit": "µM"}
    ]},
    {"smiles": "CCCCCC", "note": "[n-hexane]", "values": [
      {"measurement": "KM", "setting": "cytochrome P450 BM3 [4]", "result": "n.o."},
      {"measurement": "kcat", "setting": "cytochrome P450 BM3 [4]", "result": "n.o."},
      {"measurement": "R (Remark)", "setting": "cytochrome P450 BM3 [1]", "result": "N"},
      {"measurement": "Kd", "setting": "cytochrome P450 BM3 [3]; 20° C., 100 mM potassium phosphate buffer pH 8.0", "result": "n.o."}
    ]},
    {"smiles": "CCCCCCCCCCCC(=O)O", "note": "[LA, lauric acid]", "values": [
      {"measurement": "R (Remark)", "setting": "cytochrome P450 BM3 [1]", "result": "S"},
      {"measurement": "Vmax", "setting": "cytochrome P450 BM3 [1]; whole cells", "result": "10.26 ± 0.87", "unit": "nM NADP^+/min"},
      {"measurement": "time at which the plateau of the A360 alkali product curve is reached", "setting": "cytochrome P450 BM3 [1]; whole cells", "result": 7, "unit": "h"},
      {"measurement": "substrate concentration above which the linear region of NADPH oxidation was found in the first 25 min", "setting": "cytochrome P450 BM3 [1]; whole cells", "result": "higher than 200 μM"},
      {"measurement": "% H2O2", "setting": "cytochrome P450 BM3 [2]", "result": 0.66, "unit": "%"},
      {"measurement": "Kd", "setting": "cytochrome P450 BM3 [3]; [5]", "result": "135 ± 38.2", "unit": "µM"}
    ]},
    {"smiles": "CCCCCCCCCCCCOS(=O)(=O)[O-].[Na+]", "note": "[SDS, sodium dodecyl sulphate]", "values": [
      {"measurement": "R (Remark)", "setting": "cytochrome P450 BM3 [1]", "result": "S"},
      {"measurement": "ratio of sample A360 signal/blank signal", "setting": "cytochrome P450 BM3 [1]; whole cells, SDS supplied periodically, 1.5 h after NADPH addition", "result": "about 30"},
      {"measurement": "Vmax", "setting": "cytochrome P450 BM3 [1]; whole cells", "result": "18.19 ± 1.12", "unit": "nM NADP^+/min"},
      {"measurement": "time at which the plateau of the A360 alkali product curve is reached", "setting": "cytochrome P450 BM3 [1]; whole cells", "result": 3.5, "unit": "h"},
      {"measurement": "substrate concentration above which the linear region of NADPH oxidation was found in the first 25 min", "setting": "cytochrome P450 BM3 [1]; whole cells", "result": "higher than 300 μM"},
      {"measurement": "% H2O2", "setting": "cytochrome P450 BM3 [2]", "result": 0.63, "unit": "%"},
      {"measurement": "Kd", "setting": "cytochrome P450 BM3 [3]; [5]", "result": "11.5 ± 3.7", "unit": "µM"}
    ]}
  ]
}
